Data reported in patent publication US12714097B2, “Compositions and systems for disinfection” (Markesbery Blue Pearl LLC, priority 2017, dated 2026).
Converted amounts (≈) assume the structure as drawn.

Experiments:
[1] = cited from earlier work; for Sol (Exp): experimental water solubility; for solubility: aqueous, at 25° C.
[2] = cited from earlier work; for log P Exp.: experimentally determined, database entry; for Log P: known values used for standard curve
[3] = Experimental water solubility of alcohol compounds at 25° C.

Compound | Sol (Exp) ([1]; 25° C.) [g/L] | log P Exp. [2] | other results
CCC(C)(C)CO [2,2-Dimethyl-1-butanol] | 7.6 | – | –
CC(C)C(C)(C)O [2,3-Dimethyl-2-butanol] | 43.5 | – | –
CCC(C)C(C)(C)O (centres unmarked) [2,3-Dimethyl-2-pentanol] | 15.7 | – | –
CC(C)CC(C)(C)O [2,4-Dimethyl-2-pentanol] | 13.6 | – | –
CC(C)C(O)C(C)C [2,4-Dimethyl-3-pentanol] | 7 | – | –
CC=CC=CCO [2,4-Hexadien-1-ol] | – | 1.334 | –
CCC(CC)CO [2-Ethyl-1-butanol] | 4 | – | –
CCCCC(C)O (centres unmarked) [2-hexanol] | 13.7 | 1.76 | Log P [2]: 1.76
Cc1ccccc1O [2-methyl phenol] | 25.9 | – | –
CCCC(C)O (centres unmarked) [2-pentanol] | 44.6 | – | Log P [2]: 1.19
CC(C)=CCO [3-Methyl-2-buten-1-ol] | – | 1.244 | –
CCCC(O)CC (centres unmarked) [3-hexanol] | 16.1 | 1.65 | Log P [2]: 1.65; Solubility (at 25° C.) ([1]; water, 25° C., known values used for standard curve): 16.1 mg/mL (≈ 158 mM)
CC(C)CCO [3-methyl-1-butanol] | 26.7 | – | –
CCC(O)CC [3-pentanol] | 51.5 | 1.21 | Log P [2]: 1.21
CC(C)CCCO [4-Methyl-1-pentanol] | 7.6 | – | –
CCCCCCCCO [n-octanol] | – | – | solubility [1]: 0.5 grams per liter
CCCCCO [n-pentanol] | 22 | 1.51 | Log P [2]: 1.51; solubility converted to percent by weight of an aqueous composition [3]: 2.2 % by weight; solubility [1]: 22 grams per liter
